Here are results for 1 compound from patent US11865116B2, “Treatment of cancer with TG02” (Cothera Bioscience, Inc., priority 2016, dated 2024).

The structures appear in SMILES notation.

The subject of the assay is mouse glioma GL261 cells. In words: Mouse glioma GL261 cell allograft model, survival. Type of assay: in vivo. To be noted: female C57BL/6 albino mice, GL261 cells in the striatum; vehicle 24 days. As to the method: Mouse glioma GL261 cells were injected stereotactically into the striatum of female C57BL/6 albino mice (n=5-7 per cohort) followed by vehicle, TG02, TMZ, and TG02+TMZ combination treatment. A median overall survival of 24, 24.5, 27.5, and 32 days, respectively was observed. The result was analyzed using Logrank test for trend in GraphPad Prism software (Chi square=9.063, df=1, P value=0.0026**). The turmor burden was determined by bioluminescence imaging (BLI) taken using the PerkinElmer IVIS® Spectrum. The intensity of BLI was calculated and normalized to the initial intensity at day 5.

In the case of `Cn1nnc2c(C(N)=O)ncn2c1=O` [TMZ, temozolomide, reference compound], the median overall survival is 27.5 days.
